From patent US20260285853A1, “COMPOUNDS AND METHODS FOR MODULATING SPLICING” (REMIX THERAPEUTICS INC., priority 2023, published 2026)
Read-outs that look alike come from different tables or passages of the source.

Experiments:
Format in all cases: cell-based
HTT mRNA [1] = test: Splicing RT-qPCR assay (THP), Table 2A
MYB mRNA [2] = test: Splicing RT-qPCR assay (THP), Table 2A
HTT mRNA [3] = test: Gene panel canonical junction qPCR assay, decrease in CJ mRNA, Table 3
Outline: (§1)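 IC50 denotes the concentration giving 50% decrease in canonical-junction mRNA, fitted by 4-parameter logistic to percentage response derived from ΔΔCt versus housekeeping gene and DMSO control. Cells (A673 or K562) exposed 24 h to 11-point 3-fold serial dilutions from 10 uM top, DMSO ≤0.25%; junction-spanning primer/probe qPCR.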

MYB mRNA [4] = test: as above
Outline: as §1

[5] = test system: SH-SY5Y (human neuroblastoma) cells; test: Cell viability, Cell Titer Glo 2.0 assay; conditions: read-out: Viability SHSY5Y.3 GI50
Outline: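 Viability was read by CellTiter-Glo 2.0 luminescence after a 72-hour compound exposure at 37° C. under 5% CO2. Cells were in IMDM plus 10% FBS containing 0.1% DMSO, and medium-only wells gave the blank.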

[6] = Table 2A, THP, HTT alternative junction (AJ) mRNA, read-out: HTT AJ (AC50, increase in alternative junction mRNA)
[7] = Table 2A, THP, HTT canonical junction (CJ) mRNA, read-out: HTT CJ (IC50, decrease in canonical junction mRNA)
[8] = Table 2A, THP, MYB alternative junction (AJ) mRNA, read-out: MYB AJ (AC50, increase in alternative junction mRNA)
[9] = Table 2A, THP, MYB canonical junction (CJ) mRNA, read-out: MYB CJ (IC50, decrease in canonical junction mRNA)
[10] = decrease in CJ mRNA levels, canonical junction qPCR, gene panel
[11] = Table 2A (THP), AJ mRNA increase, read-out: HTT AJ (increase in alternative junction mRNA, AC50)
[12] = Table 2A (THP), CJ mRNA decrease, read-out: HTT CJ (decrease in canonical junction mRNA, IC50)
[13] = Table 2A (THP), AJ mRNA increase, read-out: MYB AJ (increase in alternative junction mRNA, AC50)
[14] = Table 2A (THP), CJ mRNA decrease, read-out: MYB CJ (decrease in canonical junction mRNA, IC50)
[15] = decrease in canonical junction (CJ) mRNA, gene panel qPCR, Table 3

IC50 (HTT mRNA [1]; [7])	IC50 (MYB mRNA [2]; [9])	IC50 (HTT mRNA [3]; [10])	IC50 (MYB mRNA [4]; [10])	GI50 [5]	IC50 (HTT mRNA [1]; [12])	IC50 (MYB mRNA [2]; [14])	IC50 (HTT mRNA [3]; [15])	IC50 (MYB mRNA [4]; [15])	Structure (SMILES)	AC50 (HTT mRNA [1]; [6])	AC50 (MYB mRNA [2]; [8])	AC50 (HTT mRNA [1]; [11])	AC50 (MYB mRNA [2]; [13])
> 10 µM	> 10 µM	> 10 µM	> 10 µM	1 to 10 µM	–	–	–	–	Cn1cc2cc(NC(=O)c3cc(F)c(N4CCC(NC5CC5)CC4)c4cn(C)nc34)cc(F)c2n1 [Compound 708, 4-[4-(cyclopropylamino)-1-piperidyl]-5-fluoro-N-(7-fluoro-2-methyl-indazol-5-yl)-2-methyl-indazole-7-carboxamide]	> 10 µM	1 to 10 µM	–	–
–	–	–	–	0.1 to 1 µM	0.1 to 1 µM	0.1 to 1 µM	0.1 to 1 µM	0.1 to 1 µM	CCNC1CC2(C1)CN(c1ccc(C(=O)Nc3cc4cn(C)nc4cc3OC)c3nn(C)cc13)C2 [Compound 578]	–	–	0.1 to 1 µM	0.1 to 1 µM
1 to 10 µM	0.1 to 1 µM	–	–	1 to 10 µM	–	–	1 to 10 µM	0.1 to 1 µM	CNC1CCC(Oc2ccc(C(=O)Nc3cc4cn(C)nc4cc3OC)c3nn(C)cc23)C1 (stereo not drawn) [Compound 603]	1 to 10 µM	0.1 to 1 µM	–	–
> 10 µM	> 10 µM	> 10 µM	> 10 µM	> 10 µM	–	–	–	–	Cc1cn2cc(NC(=O)c3ccc(N4CCC(NC5CC5)CC4)c4cn(C)nc34)nc2c(CN(C)S(C)(=O)=O)n1 [Compound 703, 4-(4-(cyclopropylamino)piperidin-1-yl)-2-methyl-N-(6-methyl-8-((N-methylmethylsulfonamido)methyl)imidazo[1,2-a]pyrazin-2-yl)-2H-indazole-7-carboxamide 2,2,2-trifluoroacetate]	> 10 µM	> 10 µM	–	–
1 to 10 µM	0.1 to 1 µM	1 to 10 µM	0.1 to 1 µM	1 to 10 µM	–	–	–	–	COc1nc2c(N3CCC(NC4CC4)CC3)ccc(C(=O)Nc3cc(F)c4nc(C)cn4c3)c2o1 [Compound 666, 4-[4-(cyclopropylamino)-1-piperidyl]-N-(8-fluoro-2-methyl-imidazo[1,2-a]-pyridin-6-yl)-2-methoxy-1,3-benzoxazole-7-carboxamide]	1 to 10 µM	0.1 to 1 µM	–	–
> 10 µM	> 10 µM	> 10 µM	> 10 µM	> 10 µM	–	–	–	–	CCNC1CCN(c2ccc(C(=O)Nc3cn4ccnc(CNS(C)(=O)=O)c4n3)c3nn(C)cc23)CC1 [Compound 850]	> 10 µM	> 10 µM	–	–
–	–	–	–	> 10 µM	> 10 µM	> 10 µM	> 10 µM	> 10 µM	Cc1cn2cc(NC(=O)c3ccc(OC4CCNC4)c4cn(C)nc34)nc2c(C)n1 (stereo not drawn) [Compound 537]	–	–	> 10 µM	> 10 µM
> 10 µM	1 to 10 µM	> 10 µM	1 to 10 µM	1 to 10 µM	–	–	–	–	COc1nc2c(C(=O)Nc3cc4cc(C)nn4cc3OC)ccc(N3C[C@H](C)N[C@@H](C)C3)c2s1 [Compound 787, 7-((3S,5S)-3,5-dimethylpiperazin-1-yl)-2-methoxy-N-(6-methoxy-2-methylpyrazolo[1,5-a]pyridin-5-yl)benzo[d]thiazole-4-carboxamide 2,2,2-trifluoroacetate]	> 10 µM	> 10 µM	–	–
–	–	–	–	1 to 10 µM	1 to 10 µM	1 to 10 µM	1 to 10 µM	1 to 10 µM	COc1cc2nn(C)cc2cc1NC(=O)c1ccc(N2CCC(NC3CC3)CC2)c2c(CO)n(C)nc12 [Compound 522, 4-[4-(cyclopropylamino)-1-piperidyl]-3-(hydroxymethyl)-N-(6-methoxy-2-methyl-indazol-5-yl)-2-methyl-indazole-7-carboxamide]	–	–	1 to 10 µM	1 to 10 µM
0.1 to 1 µM	< 0.1 µM	0.1 to 1 µM	< 0.1 µM	< 0.1 µM	–	–	–	–	COc1nc2c(C(=O)Nc3cc(Cl)c4nn(C)cc4c3)ccc(N3C[C@H](C)N[C@@H](C)C3)c2s1 [Compound 785]	0.1 to 1 µM	< 0.1 µM	–	–
1 to 10 µM	1 to 10 µM	1 to 10 µM	1 to 10 µM	1 to 10 µM	–	–	–	–	COc1c(NC(=O)c2c(F)cc(N3CCC(NC4CC4)CC3)c3nc(C)sc23)cn2cc(C)nc2c1F [Compound 663, 4-[4-(cyclopropylamino)-1-piperidyl]-6-fluoro-N-(8-fluoro-7-methoxy-2-methyl-imidazo[1,2-a]-pyridin-6-yl)-2-methyl-1,3-benzothiazole-7-carboxamide]	1 to 10 µM	1 to 10 µM	–	–

More lines, now with the values behind:

Structure (SMILES)	IC50 (HTT mRNA [1]; [7])	IC50 (MYB mRNA [2]; [9])	IC50 (HTT mRNA [3]; [10])	IC50 (MYB mRNA [4]; [10])	GI50 [5]	IC50 (HTT mRNA [1]; [12])	IC50 (MYB mRNA [2]; [14])	IC50 (HTT mRNA [3]; [15])	IC50 (MYB mRNA [4]; [15])	AC50 (HTT mRNA [1]; [6])	AC50 (MYB mRNA [2]; [8])	AC50 (HTT mRNA [1]; [11])	AC50 (MYB mRNA [2]; [13])
CNC1CCCC(Oc2ccc(C(=O)Nc3cn4cc(C)nc(C)c4n3)c3nn(C)cc23)C1 (stereo not drawn) [Compound 593]	–	–	–	–	> 10 µM	> 10 µM	> 10 µM	> 10 µM	> 10 µM	–	–	> 10 µM	> 10 µM
CCNC1CCN(c2ccc(C(=O)Nc3cc(-n4ccc(=O)cc4)c4nc(C)cn4c3)c3nn(C)cc23)CC1 [Compound 360, 4-(4-(ethylamino)piperidin-1-yl)-2-methyl-N-(2-methyl-8-(4-oxopyridin-1-(4H)-yl)imidazo[1,2-a]-pyridin-6-yl)-2H-indazole-7-carboxamide]	–	–	–	–	1 to 10 µM	1 to 10 µM	1 to 10 µM	1 to 10 µM	1 to 10 µM	–	–	1 to 10 µM	1 to 10 µM
Cc1cn2cc(NC(=O)c3ccc(N4CCC5(CCCN5)CC4)c4cn(C)nc34)nc2c(CNS(C)(=O)=O)n1 [Compound 826]	> 10 µM	> 10 µM	> 10 µM	> 10 µM	> 10 µM	–	–	–	–	> 10 µM	> 10 µM	–	–
Cc1cn2cc(NC(=O)c3cc(F)c(N4CCC(NC5CC5)CC4)c4cn(C)nc34)cc(F)c2n1 [Compound 713, 4-[4-(cyclopropylamino)-1-piperidyl]-5-fluoro-N-(8-fluoro-2-methyl-imidazo[1,2-a]pyridin-6-yl)-2-methyl-indazole-7-carboxamide]	> 10 µM	0.1 to 1 µM	> 10 µM	0.1 to 1 µM	0.1 to 1 µM	–	–	–	–	> 10 µM	0.1 to 1 µM	–	–
CCNC1CCN(c2ccc(C(=O)Nc3nc4c(C)nc(C)cc4n3C)c3nn(C)cc23)CC1 [Compound 583, 4-[4-(ethylamino)-1-piperidyl]-2-methyl-N-(1,4,6-trimethyl-imidazo[4,5-c]pyridin-2-y1)-indazole-7-carboxamide]	–	–	–	–	> 10 µM	1 to 10 µM	> 10 µM	1 to 10 µM	> 10 µM	–	–	1 to 10 µM	> 10 µM
CNC1CCN(c2cc(F)c(C(=O)Nc3cn4cc(C)nc(C)c4n3)c3nn(C)cc23)CC1 [Compound 342, N-(6,8-dimethylimidazo[1,2-a]pyrazin-2-yl)-6-fluoro-2-methyl-4-[4-(methylamino)-1-piperidyl]-indazole-7-carbox-amide]	–	–	–	–	1 to 10 µM	1 to 10 µM	< 0.1 µM	1 to 10 µM	< 0.1 µM	–	–	1 to 10 µM	< 0.1 µM
CCNC1CCN(c2ccc(C(=O)Nc3cn4cc(C)nc(C)c4n3)c3nn(C)cc23)CC1C (stereo not drawn) [Compound 604]	1 to 10 µM	> 10 µM	–	–	1 to 10 µM	–	–	1 to 10 µM	> 10 µM	> 10 µM	1 to 10 µM	–	–
